Patent US7691889B2, “Antimycobacterial compounds” (Lupin Limited, priority 2002, dated 2010)
Converted amounts (≈) assume the structure as drawn.

Experiments:
[1] = tested on: M. tuberculosis 27294; assay: In vitro agar dilution assay (MIC), reference strain; format: cell-based, Mycobacterium tuberculosis; conditions: for MIC against M. tuberculosis 27294: Middlebrook 7H10; for MIC: Mycobacterium tuberculosis, 27294, Middlebrook 7H10, read-out: MIC against M. tuberculosis 27294
[2] = tested on: M. tuberculosis clinical isolates, sensitive; assay: microbe, parasite or virus in culture; format: cell-based, Mycobacterium tuberculosis; conditions: for MIC against Clinical isolates Sensitive: Table I, agar dilution; for MIC: Mycobacterium tuberculosis, read-out: MIC against Clinical isolates Sensitive

SMILES | MIC against M. tuberculosis 27294 [1] | MIC against Clinical isolates Sensitive [2] | MIC [1] | MIC [2]
O=C(CCC(=O)c1ccccc1)NC[C@H]1CN(c2ccc(N3CCOCC3)c(F)c2)C(=O)O1 [Compound 1, (S)-N-[[3-(3-fluoro-4-morpholinylphenyl)-2-oxo-5-oxazolidinyl]methyl]-4-oxo-4-phenylbutanamide] | 16 µg/mL (≈ 35.1 µM) | 4 to 16 µg/mL |  | 
Cc1ccc(C(=O)CCC(=O)NC[C@H]2CN(c3ccc(N4CCOCC4)c(F)c3)C(=O)O2)cc1 [Compound 2, (S)-N-[[3-(3-fluoro-4-morpholinylphenyl)-2-oxo-5-oxazolidinyl]methyl]-4-(4-methylphenyl)-4-oxobutanamide] | 8 µg/mL (≈ 17 µM) | 8 µg/mL (≈ 17 µM) |  | 
O=C(CCC(=O)c1ccccc1)NC[C@H]1CN(c2ccc(N3CCSCC3)c(F)c2)C(=O)O1 [Compound 8, (S)-N-[[3-(3-fluoro-4-thiomorpholinylphenyl)-2-oxo-5-oxazolidinyl]methyl]-4-oxo-4-phenylbutanamide] | 2 µg/mL (≈ 4.24 µM) | .5 to 2 µg/mL |  | 
COc1ccc(C(=O)CCC(=O)NC[C@H]2CN(c3ccc(N4CCOCC4)c(F)c3)C(=O)O2)cc1 [Compound 13, (S)-N-[[3-(3-fluoro-4-morpholinylphenyl)-2-oxo-5-oxazolidinyl]methyl]-4-(4-methoxyphenyl)-4-oxobutanamide] | 2 µg/mL (≈ 4.12 µM) | 2 µg/mL (≈ 4.12 µM) |  | 
O=C(CCC(=O)c1ccc(Cl)cc1)NC[C@H]1CN(c2ccc(N3CCOCC3)c(F)c2)C(=O)O1 [Compound 14, (S)-N-[[3-(3-fluoro-4-morpholinylphenyl)-2-oxo-5-oxazolidinyl]methyl]-4-(4-chlorophenyl)-4-oxobutanamide] | 0.25 µg/mL (≈ 0.51 µM) | 0.25 to 0.5 µg/mL |  | 
Cc1ccc(C(=S)CCC(=O)NC[C@H]2CN(c3ccc(N4CCOCC4)c(F)c3)C(=O)O2)cc1 [Compound 15, (S)-N-[[3-(3-fluoro-4-morpholinylphenyl)-2-oxo-5-oxazolidinyl]methyl]-4-(4-methylphenyl)-4-thiooxobutanamide] | >16 µg/mL | >16 µg/mL |  | 
O=C(CCC(=O)c1ccc2ccccc2c1)NC[C@H]1CN(c2ccc(N3CCOCC3)c(F)c2)C(=O)O1 [Compound 16, (S)-N-[[3-(3-fluoro-4-morpholinylphenyl)-2-oxo-5-oxazolidinyl]methyl]-4-(4-2-naphthyl)-4-oxobutanamide] | 0.5 µg/mL (≈ 0.989 µM) | 0.5 µg/mL (≈ 0.989 µM) |  | 
CC(C)Cc1ccc(C(=O)CCC(=O)NC[C@H]2CN(c3ccc(N4CCOCC4)c(F)c3)C(=O)O2)cc1 [Compound 17] | 0.5 µg/mL (≈ 0.977 µM) | 1.0 µg/mL (≈ 1.95 µM) |  | 
O=C(CCC(=O)c1ccc(F)cc1F)NC[C@H]1CN(c2ccc(N3CCOCC3)c(F)c2)C(=O)O1 [Compound 18, (S)-N-[[3-(3-fluoro-4-morpholinylphenyl)-2-oxo-5-oxazolidinyl]methyl]-4-(2,4-difluorophenyl)-4-oxobutanamide] | 4− μg/ml | 1 to 4 µg/mL |  | 
O=C(CCC(=O)c1cccs1)NC[C@H]1CN(c2ccc(N3CCOCC3)c(F)c2)C(=O)O1 [Compound 19, (S)-N-[[3-(3-fluoro-4-morpholinylphenyl)-2-oxo-5-oxazolidinyl]methyl]-4-oxo-4-(2-thienyl)butanamide] | 2 µg/mL (≈ 4.33 µM) | 1 to 2 µg/mL |  | 
CSc1ccc(C(=O)CCC(=O)NC[C@H]2CN(c3ccc(N4CCOCC4)c(F)c3)C(=O)O2)cc1 [Compound 21, (S)-N-[[3-(3-fluoro-4-morpholinylphenyl)-2-oxo-5-oxazolidinyl]methyl]-4-oxo-4-(4-thiomethyl)phenylbutanamide] | 0.5 µg/mL (≈ 0.997 µM) | 0.5 to 2 µg/mL |  | 
Cc1ccc(C(=O)CCC(=O)NC[C@H]2CN(c3ccc(N4CCOCC4)c(F)c3)C(=O)O2)c(C)c1 [Compound 25, (S)-N-[[3-(3-fluoro-4-morpholinylphenyl)-2-oxo-5-oxazolidinyl]methyl]-4-(2,4-dimethylphenyl)-4-oxobutanamide] | 4 µg/mL (≈ 8.27 µM) | 4 to 16 µg/mL |  | 
Cc1ccc(C(=O)CCC(=O)NC[C@H]2CN(c3ccc(-n4nnc5ccccc54)c(F)c3)C(=O)O2)c(C)c1 [Compound 27, (S)-N-[[3-(3-fluoro-4-benzotriazolylphenyl)-2-oxo-5-oxazolidinyl]methyl]-4-(2,4-dimethylphenyl)-4-oxobutanamide] | >16 µg/mL | >16 µg/mL |  | 
O=C(CCC(=O)c1cccs1)NC[C@H]1CN(c2ccc(N3CCCC3)c(F)c2)C(=O)O1 [Compound 28, (S)-N-[[3-(3-fluoro-4-pyrrolidinylphenyl)-2-oxo-5-oxazolidinyl]methyl]-4-oxo-4-(2-thienyl)butanamide] | 0.5 µg/mL (≈ 1.12 µM) | 1 to 2 µg/mL |  | 
O=C(CCC(=O)c1cccs1)NC[C@H]1CN(c2ccc([N+]3([O-])CCOCC3)c(F)c2)C(=O)O1 [Compound 31, (S)-N-[[3-(3-fluoro-4-morpholinylphenyl)-2-oxo-5-oxazolidinyl]methyl]-4-oxo-4-(2-thienyl)butanamide-N-oxide] | 1 µg/mL (≈ 2.09 µM) | 1 to 2 µg/mL |  | 
O=C(CCC(=O)c1ccc(Cl)cc1)NC[C@H]1CN(c2ccc([N+]3([O-])CCOCC3)c(F)c2)C(=O)O1 [Compound 32, (S)-N-[[3-(3-fluoro-4-morpholinylphenyl)-2-oxo-5-oxazolidinyl]methyl]-4-(4-chlorophenyl)-4-oxobutanamide-N-oxide] | 0.25 µg/mL (≈ 0.494 µM) | 0.25 to 0.5 µg/mL |  | 
CC(C)Cc1ccc(C(=O)CCC(=O)NC[C@H]2CN(c3ccc([N+]4([O-])CCOCC4)c(F)c3)C(=O)O2)cc1 [Compound 33] | 0.5 µg/mL (≈ 0.948 µM) | 1 µg/mL (≈ 1.9 µM) |  | 
O=C(C=CC(=O)c1ccccc1)NC[C@H]1CN(c2ccc(N3CCOCC3)c(F)c2)C(=O)O1 [Compound 34, (S)-N-[[3-(3-fluoro-4-morpholinylphenyl)-2-oxo-5-oxazolidinyl]methyl]-4-oxo-4-phenylbut-2-enamide] | >16 µg/mL | >16 µg/mL |  | 
COc1ccc(C(=O)CCC(=O)NC[C@H]2CN(c3ccc(N4CCCCC4)c(F)c3)C(=O)O2)cc1 [Compound 35, (S)-N-[[3-(3-fluoro-4-piperidylphenyl)-2-oxo-5-oxazolidinyl]methyl]-4-(4-methoxyphenyl)-4-oxobutanamide] | 4 µg/mL (≈ 8.27 µM) | 2 to 4 µg/mL |  | 
O=C(CCC(=O)c1ccc(Cl)cc1)NC[C@H]1CN(c2ccc(N3CCCCC3)c(F)c2)C(=O)O1 [Compound 36, (S)-N-[[3-(3-fluoro-4-piperidylphenyl)-2-oxo-5-oxazolidinyl]methyl]-4-(4-chlorophenyl)-4-oxobutanamide] | 4 µg/mL (≈ 8.2 µM) | 4 to 8 µg/mL |  | 
O=C(CCC(=O)c1ccc(Cl)cc1)NC[C@H]1CN(c2ccc(-n3nnc4ccccc43)c(F)c2)C(=O)O1 [Compound 39, (S)-N-[[3-(3-fluoro-4-benzotriazolylphenyl)-2-oxo-5-oxazolidinyl]methyl]-4-(4-chlorophenyl)-4-oxobutanamide] | 2 µg/mL (≈ 3.83 µM) | 2 to 4 µg/mL |  | 
Cc1ccc(C(=O)CCC(=O)NC[C@H]2CN(c3ccc(-c4nc[nH]n4)c(F)c3)C(=O)O2)c(C)c1 [Compound 43, (S)-N-[[3-(3-fluoro-4-(1,2,4-triazolyl)phenyl)-2-oxo-5-oxazolidinyl]methyl]-4-(2,4-dimethylphenyl)-4-oxobutanamide] |  |  | 1 µg/mL (≈ 2.15 µM) | 0.5 to 1 µg/mL (≈ 1.07 to 2.15 µM)
CSc1ccc(C(=O)CCC(=O)NC[C@H]2CN(c3ccc(-n4cncn4)c(F)c3)C(=O)O2)cc1 [Compound 44, (S)-N-[[3-(3-fluoro-4-(1,2,4-triazolyl)phenyl)-2-oxo-5-oxazolidinyl]methyl]-4-oxo-4-(4-thiomethylphenyl)butanamide] | 1 µg/mL (≈ 2.07 µM) | 0.5 to 2 µg/mL |  | 
CCCc1ccc(C(=O)CCC(=O)NC[C@H]2CN(c3ccc(-c4nc[nH]n4)c(F)c3)C(=O)O2)c(C)c1 [Compound 46, (S)-N-[[3-(3-fluoro-4-(1,2,4-triazolyl)phenyl)-2-oxo-5-oxazolidinyl]methyl]-4-(2′-methyl-4-propylphenyl)-4-oxobutanamide] |  |  | 2 µg/mL (≈ 4.05 µM) | 2 to 4 µg/mL (≈ 4.05 to 8.1 µM)
O=C(CCC(=O)c1cccs1)NC[C@H]1CN(c2ccc(-c3nc[nH]n3)c(F)c2)C(=O)O1 [Compound 47, (S)-N-[[3-(3-fluoro-4-(1,2,4-triazolyl)phenyl)-2-oxo-5-oxazolidinyl]methyl]-4-oxo-4-(2-thienyl)butanamide] |  |  | 1 µg/mL (≈ 2.25 µM) | 1 to 2 µg/mL (≈ 2.25 to 4.51 µM)
O=C(CCC(=O)c1ccc(F)cc1F)NC[C@H]1CN(c2ccc(-c3nc[nH]n3)c(F)c2)C(=O)O1 [Compound 51, (S)-N-[[3-(3-fluoro-4-(1,2,4-triazolyl)phenyl)-2-oxo-5-oxazolidinyl]methyl]-4-(2,4-difluorophenyl)-4-oxobutanamide] |  |  | 8 µg/mL (≈ 16.9 µM) | 
O=C(CCC(=O)c1ccc2ccccc2c1)NC[C@H]1CN(c2ccc(N3CCCC3)c(F)c2)C(=O)O1 [Compound 57, (S)-N-[[3-(3-fluoro-4-pyrrolidinylphenyl)-2-oxo-5-oxazolidinyl]methyl]-4-(2-naphthyl)-4-oxobutanamide] | 16 µg/mL (≈ 32.7 µM) |  |  | 
CCCc1ccc(C(=O)CCC(=O)NC[C@H]2CN(c3ccc(N4CCCC4)c(F)c3)C(=O)O2)c(C)c1 [Compound 58, (S)-N-[[3-(3-fluoro-4-pyrrolidinylphenyl)-2-oxo-5-oxazolidinyl]methyl]-4-(2′-methyl-4-propylphenyl)-4-oxobutanamide] | 8 µg/mL (≈ 16.1 µM) |  |  | 
